# ChEMBL document CHEMBL5126623, “Dual Targeting of Steroid Sulfatase and 17β-Hydroxysteroid Dehydrogenase Type 1 by a Novel Drug-Prodrug Approach: A Potential Therapeutic Option for the Treatment of Endometriosis” (J Med Chem, 2022)
# Tests used:
# [1] = target: T1, Steryl-sulfatase (Homo sapiens, UniProt P08842); experiment: Inhibition of STS in human T47D cells using [3H]E1S as substrate measured after 24 hrs by HPLC analysis; type: cell-based
# T1 sequence (P08842 whole entry): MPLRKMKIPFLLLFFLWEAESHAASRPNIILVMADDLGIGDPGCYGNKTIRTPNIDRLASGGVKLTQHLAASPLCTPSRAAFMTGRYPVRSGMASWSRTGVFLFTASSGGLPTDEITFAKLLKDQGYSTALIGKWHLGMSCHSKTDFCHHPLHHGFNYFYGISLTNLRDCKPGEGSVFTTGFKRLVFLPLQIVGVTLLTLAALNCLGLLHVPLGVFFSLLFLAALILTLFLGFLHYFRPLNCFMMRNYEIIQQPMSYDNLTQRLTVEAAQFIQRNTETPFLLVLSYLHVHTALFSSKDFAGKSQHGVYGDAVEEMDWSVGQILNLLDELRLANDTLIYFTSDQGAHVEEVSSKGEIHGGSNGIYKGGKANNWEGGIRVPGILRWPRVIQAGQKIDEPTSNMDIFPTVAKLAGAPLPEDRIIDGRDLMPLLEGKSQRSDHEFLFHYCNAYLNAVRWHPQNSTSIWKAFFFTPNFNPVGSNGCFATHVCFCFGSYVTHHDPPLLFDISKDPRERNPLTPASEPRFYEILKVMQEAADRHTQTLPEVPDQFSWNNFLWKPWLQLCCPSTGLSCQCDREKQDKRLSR
# [2] = target: T2, 17-beta-hydroxysteroid dehydrogenase type 1 (Homo sapiens, UniProt P14061); experiment: Inhibition of 17beta-HSD1 in human T47D cells using [3H]E1S as substrate measured after 24 hrs by HPLC analysis; type: cell-based
# T2 sequence (P14061 whole entry): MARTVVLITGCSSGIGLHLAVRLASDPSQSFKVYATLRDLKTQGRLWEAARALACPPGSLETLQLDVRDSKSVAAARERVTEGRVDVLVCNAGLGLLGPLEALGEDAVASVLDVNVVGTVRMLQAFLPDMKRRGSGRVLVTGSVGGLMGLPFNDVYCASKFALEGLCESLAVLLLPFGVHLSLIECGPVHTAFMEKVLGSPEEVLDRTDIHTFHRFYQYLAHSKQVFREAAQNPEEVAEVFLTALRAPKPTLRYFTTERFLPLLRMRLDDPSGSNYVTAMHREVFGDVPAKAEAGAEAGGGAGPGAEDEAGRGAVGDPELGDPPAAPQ
# [3] = Cytotoxicity against human HEK293 cells assessed as cell growth inhibition at 20 uM measured at 48 hrs bt MTT assay relative to control; type: toxicity, cell-based
# [4] = species on record: Homo sapiens; experiment: Selectivity ratio of IC50 for human placental microsomal fraction 17beta-HSD2 to IC50 for human placental cytosolic fraction 17beta-HSD1
# [5] = target: T2, 17-beta-hydroxysteroid dehydrogenase type 1; experiment: Inhibition of human placental cytosolic fraction 17beta-HSD1 using [3H]-E1 as substrate in presence of NADH measured after 10 mins by HPLC method; type: subcellular, Placenta, Cytosol
# [6] = target: T3, 17-beta-hydroxysteroid dehydrogenase type 2 (Homo sapiens, UniProt P37059); experiment: Inhibition of human placental microsomal fraction 17beta-HS2 using [3H]-E2 as substrate in presence of NAD+ measured after 10 mins by HPLC method; type: subcellular, Placenta, Microsome
# T3 sequence (P37059 whole entry): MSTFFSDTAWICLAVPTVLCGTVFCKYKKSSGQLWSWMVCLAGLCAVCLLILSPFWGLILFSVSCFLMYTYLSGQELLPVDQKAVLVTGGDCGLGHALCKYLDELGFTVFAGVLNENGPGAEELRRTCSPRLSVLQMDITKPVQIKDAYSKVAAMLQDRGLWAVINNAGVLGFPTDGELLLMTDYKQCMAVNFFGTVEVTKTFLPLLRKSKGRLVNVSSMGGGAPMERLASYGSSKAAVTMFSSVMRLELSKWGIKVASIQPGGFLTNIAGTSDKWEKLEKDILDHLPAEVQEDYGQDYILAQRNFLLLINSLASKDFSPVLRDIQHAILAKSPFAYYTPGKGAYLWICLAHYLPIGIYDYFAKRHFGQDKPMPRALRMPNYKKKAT
# [7] = Metabolic stability in human liver S9 fraction assessed as intrinsic clearance at 1 uM in presence of NADPH measured upto 60 min by LC-MS/MS analysis; type: ADME, subcellular; conditions: s9, 1 h
# [8] = Metabolic stability in mouse liver S9 fraction assessed as intrinsic clearance at 1 uM in presence of NADPH measured upto 60 min by LC-MS/MS analysis; type: ADME, subcellular; conditions: s9, 1 h
# [9] = Metabolic stability in human liver S9 fraction assessed as half life at 1 uM in presence of NADPH measured upto 60 min by LC-MS/MS analysis; type: ADME, subcellular
# [10] = Metabolic stability in mouse liver S9 fraction assessed as half life at 1 uM in presence of NADPH measured upto 60 min by LC-MS/MS analysis; type: ADME, subcellular
# [11] = target: T1, Steryl-sulfatase; experiment: Irreversible inhibition of STS in human T47D cells using [3H]E1S as substrate measured after 24 hrs by HPLC analysis; type: cell-based
SMILES,IC50 [1] [nM],IC50 [2] [nM],Ratio IC50 [4],IC50 [5] [nM],IC50 [6] [nM],also measured
Cc1ccccc1N(C)C(=O)c1nnc(-c2ccc(OS(N)(=O)=O)cc2)o1,1100,–,–,–,–,–
Cc1ccccc1N(C)C(=O)c1ccc(-c2ccc(O)c(Cl)c2)o1,–,52,74,–,–,"inhibition at 48 h, 20 µM [3]: 55%"
Cc1ccccc1N(C)C(=O)c1csc(-c2ccc(O)cc2)n1,–,12,115,34,3900,–
Cc1ccccc1N(C)C(=O)c1ccc(-c2ccc(O)c(F)c2)o1,–,10,85,11,–,–
Cc1ccncc1N(C)C(=O)c1ccc(-c2ccc(OS(N)(=O)=O)cc2)o1,820,–,–,–,–,–
Cc1ccccc1N(C)C(=O)c1ccc(-c2cccc(OS(N)(=O)=O)c2)o1,690,–,–,–,–,–
Cc1ccccc1N(C)C(=O)c1nnc(-c2ccc(O)cc2)o1,–,320,13,490,6200,–
Cc1cccc(F)c1N(C)C(=O)c1ccc(-c2ccc(O)cc2)o1,–,120,10,310,3200,–
Cc1ccccc1N(C)C(=O)c1ccc(-c2cccc(O)c2)o1,–,29,19,150,2800,–
Cc1cccnc1N(C)C(=O)c1ccc(-c2ccc(O)cc2)o1,–,1100,> 3,3300,> 10000,–
Cc1ccccc1N(C)C(=O)c1ccc(-c2ccc(OS(N)(=O)=O)c(F)c2)o1,17,–,–,–,–,intrinsic clearance [7]: 16 µL/min/mg; intrinsic clearance [8]: 140 µL/min/mg; half-life at 1 µM [9]: 43 min; half-life at 1 µM [10]: 6.1 min; IC50 [11]: 17 nM
Cc1ccc(F)cc1N(C)C(=O)c1ccc(-c2ccc(O)cc2)o1,–,12,54,41,2200,–
Cc1c(F)cccc1N(C)C(=O)c1ccc(-c2ccc(OS(N)(=O)=O)cc2)o1,27,–,–,–,–,intrinsic clearance [7]: 29 µL/min/mg; intrinsic clearance [8]: 150 µL/min/mg; half-life at 1 µM [9]: 21 min; half-life at 1 µM [10]: 4.8 min; IC50 [11]: 25 nM
Cc1cccc(F)c1N(C)C(=O)c1ccc(-c2ccc(OS(N)(=O)=O)cc2)o1,150,–,–,–,–,–
Cc1ccccc1N(C)C(=O)c1coc(-c2ccc(OS(N)(=O)=O)cc2)n1,60,–,–,–,–,intrinsic clearance [7]: 3.9 µL/min/mg; intrinsic clearance [8]: 15 µL/min/mg; half-life at 1 µM [9]: 180 min; half-life at 1 µM [10]: 47 min; IC50 [11]: 68 nM
Cc1ncccc1N(C)C(=O)c1ccc(-c2ccc(OS(N)(=O)=O)cc2)o1,270,–,–,–,–,–
Cc1ccc(F)cc1N(C)C(=O)c1ccc(-c2ccc(OS(N)(=O)=O)cc2)o1,40,–,–,–,–,intrinsic clearance [7]: 21 µL/min/mg; intrinsic clearance [8]: 180 µL/min/mg; half-life at 1 µM [9]: 34 min; half-life at 1 µM [10]: 3.9 min
Cc1c(F)cccc1N(C)C(=O)c1ccc(-c2ccc(O)cc2)o1,–,50,23,170,3900,–

SMILES,IC50 [1] [nM],IC50 [2] [nM],Ratio IC50 [4],IC50 [5] [nM],IC50 [6] [nM],also measured
Cc1ccccc1N(C)C(=O)c1ccc(-c2ccc(OS(N)(=O)=O)cc2F)o1,12,–,–,–,–,intrinsic clearance [7]: 14 µL/min/mg; intrinsic clearance [8]: 38 µL/min/mg; half-life at 1 µM [9]: 51 min; half-life at 1 µM [10]: 23 min; IC50 [11]: 16 nM
Cc1cc(F)ccc1N(C)C(=O)c1ccc(-c2ccc(OS(N)(=O)=O)cc2)o1,14,–,–,–,–,intrinsic clearance [7]: 16 µL/min/mg; intrinsic clearance [8]: 150 µL/min/mg; half-life at 1 µM [9]: 44 min; half-life at 1 µM [10]: 4.6 min; IC50 [11]: 15 nM
Cc1cccnc1N(C)C(=O)c1ccc(-c2ccc(OS(N)(=O)=O)cc2)o1,1100,–,–,–,–,–
NS(=O)(=O)Oc1ccc2c3c(c(=O)oc2c1)CCCCC3 [IROSUSTAT],–,–,–,–,–,half-life at 1 µM [10]: 3 min
Cc1ccccc1N(C)C(=O)c1ccc(-c2ccccc2O)o1,–,1900,> 5.2,1900,> 10000,–
Cc1ccccc1N(C)C(=O)c1ccc(-c2ccc(O)cc2F)o1,–,10,42,–,–,–
Cc1ccccc1N(C)C(=O)c1cnc(-c2ccc(O)cc2)s1,–,340,7.5,600,4500,–
O=c1ccc2ccc(O)cc2o1 [UMBELLIFERONE],–,–,–,–,–,intrinsic clearance [7]: 140 µL/min/mg; intrinsic clearance [8]: 280 µL/min/mg
Cc1cc(-c2ccc(C(=O)N(C)c3ccccc3C)o2)ccc1O,–,8.6,150,–,–,–
Cc1ccncc1N(C)C(=O)c1ccc(-c2ccc(O)cc2)o1,–,64,> 77,260,> 20000,–
Cc1ccccc1N(C)C(=O)c1cnc(-c2ccc(OS(N)(=O)=O)cc2)s1,130,–,–,–,–,–
Cc1ncccc1N(C)C(=O)c1ccc(-c2ccc(O)cc2)o1,–,43,> 190,160,> 30000,–
Cc1cc(F)ccc1N(C)C(=O)c1ccc(-c2ccc(O)cc2)o1,–,7.6,74,23,1700,–
Cc1cc(-c2ccc(C(=O)N(C)c3ccccc3C)o2)ccc1OS(N)(=O)=O,570,–,–,–,–,–
Cc1ccccc1N(C)C(=O)c1csc(-c2ccc(OS(N)(=O)=O)cc2)n1,63,–,–,–,–,intrinsic clearance [7]: 14 µL/min/mg; intrinsic clearance [8]: 46 µL/min/mg; half-life at 1 µM [9]: 50 min; half-life at 1 µM [10]: 15 min; IC50 [11]: 60 nM
Cc1ccccc1N(C)C(=O)c1ccc(-c2ccc(O)cc2Cl)o1,–,14,13,–,–,–
Cc1ccccc1N(C)C(=O)c1coc(-c2ccc(O)cc2)n1,–,110,> 40,250,> 10000,–
